{
  "source": "patent US6294547A",
  "about": "“Naphthyridine deratives or salts thereof” (Nippon Kayaku Kabushiki Kaisha, priority 1997, dated 2001)",
  "key": {"[1]": {"system": "NK-2 receptors", "test": "Antagonism for NK-2 receptors (neurokinin A induced contraction of isolated trachea)", "assay_type": "cell-based, Hartley strain male guinea pigs", "conditions": "concentration 5 × 10^-9 M; neurokinin A 1×10^-9 M; guinea pig trachea; 110 min incubation", "procedure": "Hartley strain male guinea pigs were killed by a blow on the head and blood-letting, and the tracheas were isolated. Specimens each composed of five slices of the trachea were prepared, and suspended at a tension of 0.5 gw in a magunus bath with an internal volume of 15 ml containing Krebs-Henseleit solution of 37° C. while introducing a mixed gas of 95% O2 +5% CO2 into the bath. As the Krebs-Henseleit solution, that containing indomethacin ([…]) was used for preventing the participation of intrinsic prostaglandins. After confirming the maximum degree of contraction of each specimen by the use of methacholine,a drug or a solvent therefor was added to the solution, followed by incubation for 110 minutes, and neurokinin A (1×10^-9 M) was allowed to act on the specimen. Phosphoramidon (1×10^-5 M) for inhibiting the degradation of neurokinin A and (±)CP-96345 (3×10^-7 M) for preventing the participation of NK-1 receptors were added 30 minutes and 20 minutes, respectively, before the addition of neurokinin A. The degree of contraction due to neurokinin A was converted to the percentage based on the maximum degree of contraction of the specimen, and then the rate of inhibition by the drug was determined relative to the percentage of contraction of the other specimen used in the case of adding the solvent."}, "[2]": {"target": "T1, NK-3 receptors (Cavia porcellus, UniProt P30098)", "T1 construct": "the ileums were isolated; from tissue; host or cells: isolated ileum of male Hartley guinea pigs", "T1 sequence (P30098 1-440)": "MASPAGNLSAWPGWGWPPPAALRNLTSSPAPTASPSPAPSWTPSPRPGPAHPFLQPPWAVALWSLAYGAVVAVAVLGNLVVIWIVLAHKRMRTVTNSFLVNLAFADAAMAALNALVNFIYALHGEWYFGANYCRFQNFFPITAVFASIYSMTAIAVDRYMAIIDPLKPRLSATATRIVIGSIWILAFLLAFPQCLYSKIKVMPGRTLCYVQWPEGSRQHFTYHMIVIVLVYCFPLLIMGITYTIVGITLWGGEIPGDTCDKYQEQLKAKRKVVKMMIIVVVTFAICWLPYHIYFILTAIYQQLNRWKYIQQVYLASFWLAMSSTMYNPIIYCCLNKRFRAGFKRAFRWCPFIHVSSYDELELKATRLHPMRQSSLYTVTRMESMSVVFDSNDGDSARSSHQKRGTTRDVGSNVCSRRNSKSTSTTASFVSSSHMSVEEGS", "test": "Antagonism for NK-3 receptors (senktide induced contraction of isolated ileum)", "assay_type": "cell-based, Hartley strain male guinea pigs", "conditions": "guinea pig ileum; senctide 1×10^-9 M; 35 min incubation; read-out: IC50 of a drug on senctide induced contraction", "procedure": "Hartley strain male guinea pigs were killed by a blow on the head and blood-letting, and the ileums were isolated. A specimen of about 3 cm in length was prepared and then suspended at a tension of 0.5 gw in a magunus bath with an internal volume of 15 ml containing Krebs-Henseleit solution of 37° C. while introducing a mixed gas of 95% O2 and 5% CO2 into the bath. As the Krebs-Henseleit solution, that containing atropine (1×10^-6 M) and indomethacin (5×10^-6 M) was used for preventing the participation of intrinsic acetylcholine and prostaglandins. Senctide (1×10^-9 M), a specific stimulating agent for NK-3 receptors was repeatedly allowed to act on the specimen at intervals of 50 minutes. After the percentage of contraction due to senctide became constant, a drug was added to the solution to each of various concentrations, followed by incubation for 35 minutes, and senctide was allowed to act on the specimen again. The rate of inhibition by the drug was determined relative to the percentage of contraction immediately before the addition of the drug, and the 50% inhibitory concentration (IC50) was determined by means of a regression line."}, "[3]": {"system": "NK-2 receptors", "test": "Inhibitory effect on bronchoconstriction caused by stimulation of NK-2 receptors (Nle10 neurokinin A (4-10))", "assay_type": "in vivo, Hartley strain male guinea pigs", "procedure": "There were used non-treated Hartley strain male guinea pigs and Hartley strain male guinea pigs received to active sensitization by subcutaneous administration of 30 mg/kg of ovalbumin 14 to 21 days before. The guinea pigs were anesthetized with pentobarbital and a tube was inserted into the trachea of each guinea pig. The guinea pigs were subjected to positive pressure respiration by means of an artificial respiratory apparatus at 10 ml/kg and 60 times/minute. The pressure in the edge of the tube in the trachea was measured as an indication of bronchoconstriction. Spontaneous respiration was inhibited by administering succinylcholine. The non-treated guinea pigs were repeatedly and intravenously injected with 2 nmol/kg of Nle10 neurokinin A (4-10), a specific stimulating agent for NK-2 receptors at intervals of 10 minutes. After the bronchoconstriction thus caused became stable, each drug was administered intravenously, orally or in duodenum. Nle10 neurokinin A (4-10) was intravenously injected again 3 minutes after the intravenous administration or 50 minutes after the oral administration or the administration in duodenum. The rate of inhibition by the drug was determined relative to the bronchoconstriction before the drug administration."}, "[4]": {"system": "Mouse", "test": "Toxic effect on mouse, intravenous", "assay_type": "in vivo", "text": "The toxicity of the compounds of the present invention was investigated."}},
  "note": "Counter-ions that a name gives are not always drawn.",
  "data": [
    {"smiles": "CN(CC(CCN1CCc2nc3c(cc2C1)CCCC3)c1ccc(Cl)c(Cl)c1)C(=O)c1ccccc1", "note": "(single isomer, unassigned) [Example 25, 2-[(-)-4-(N-benzoyl-N-methyl)amino-3-(3,4-dichlorophenylbutyll-1,2,3,4,6,7,8,9-octahydro-benzo[b][1,6]naphthyridine fumarate]", "values": [
      {"measurement": "Inhibition rate, neurokinin A induced contraction", "setting": "[1]", "result": 89.1, "unit": "%"},
      {"measurement": "IC50", "setting": "[2]", "result": 180, "unit": "nM"},
      {"measurement": "Inhibition (rate), stimulation of NK-2 receptors", "setting": "[3]; 1 μmol/kg intravenous, 3 min after administration", "result": 94.2, "unit": "%"},
      {"measurement": "Inhibition (rate), stimulation of NK-2 receptors", "setting": "[3]; 8 μmol/kg oral, 50 min after administration", "result": 67.2, "unit": "%"},
      {"measurement": "Toxicity", "setting": "[4]; 22 μmol/kg intravenous", "result": "None"},
      {"measurement": "Toxicity", "setting": "[4]; 65 μmol/kg intravenous", "result": "None"}
    ]}
  ]
}
